These results are taken from article PMC5613016, “GRL-09510, a Unique P2-Crown-Tetrahydrofuranylurethane -Containing HIV-1 Protease Inhibitor, Maintains Its Favorable Antiviral Activity against Highly-Drug-Resistant HIV-1 Variants in vitro” (Scientific Reports, 2017).

Holding throughout (assay type): cell-based
In data set [1] the test system is laboratory and primary clinical HIV-1 isolates. In words: Antiviral activity, summary over strains. The following applies: Human immunodeficiency virus 1; range over isolates; read-out: EC50 against laboratory and primary clinical HIV-1 isolates. On the procedure:
The susceptibility of HIV-1LAI or HIV-2ROD to various compounds was determined as previously described[20]–[22]. Briefly, MT-2 cells (10^4/ml) were exposed to 100 TCID50 of HIV-1LAI or HIV-2ROD in the presence or absence of various concentrations of compounds in 96-well plates and were incubated at 37 °C for 7 days. After incubation, 100 μl of the medium was removed from each well, 3-(4,5-dimetylthiazol-2-yl)-2,5-diphenyltetrazolium bromide (MTT) solution (10 μl, 7.5 mg/ml in PBS) was added to each well, followed by incubation at 37 °C for 2 h. […] To determine the sensitivity of clinically isolated HIV-1s to compounds, PHA-PBMC (10^6/ml) were exposed to 50 TCID50 of each HIV-1 and cultured in the presence or absence of various concentrations of compounds in 10-fold serial dilutions in 96-well plates. In determining the drug-susceptibility of certain laboratory HIV-1 strains, MT-4 cells were employed as target cells as previously described[23],[24]. MT-4 cells (10^5/ml) were exposed to 100 TCID50 of drug-resistant HIV-1s in the presence or absence of various concentrations of compounds and were incubated at 37 °C. On day 7, the supernatants were harvested and the amounts of p24 were determined by using a fully-automated chemiluminescent enzyme immunoassay system (Lumipulse f: Fujirebio, Tokyo)[35]–[37]. […]

The nature of data set [2]: Cytotoxicity against MT-2 cells (MTT assay). The following applies: human. The procedure:
(§1) The susceptibility of HIV-1LAI or HIV-2ROD to various compounds was determined as previously described[20]–[22]. Briefly, MT-2 cells (10^4/ml) were exposed to 100 TCID50 of HIV-1LAI or HIV-2ROD in the presence or absence of various concentrations of compounds in 96-well plates and were incubated at 37 °C for 7 days. After incubation, 100 μl of the medium was removed from each well, 3-(4,5-dimetylthiazol-2-yl)-2,5-diphenyltetrazolium bromide (MTT) solution (10 μl, 7.5 mg/ml in PBS) was added to each well, followed by incubation at 37 °C for 2 h. […] To determine the sensitivity of clinically isolated HIV-1s to compounds, PHA-PBMC (10^6/ml) were exposed to 50 TCID50 of each HIV-1 and cultured in the presence or absence of various concentrations of compounds in 10-fold serial dilutions in 96-well plates. In determining the drug-susceptibility of certain laboratory HIV-1 strains, MT-4 cells were employed as target cells as previously described[23],[24]. MT-4 cells (10^5/ml) were exposed to 100 TCID50 of drug-resistant HIV-1s in the presence or absence of various concentrations of compounds and were incubated at 37 °C. On day 7, the supernatants were harvested and the amounts of p24 were determined by using a fully-automated chemiluminescent enzyme immunoassay system (Lumipulse f: Fujirebio, Tokyo)[35]–[37]. […] All assays were performed in duplicate, and EC50 shown in this report represent average values of two to four independent experiments. PHA-PBMCs were derived from a single donor in each independent experiment. The research protocols described in the present study were carried out in accordance with relevant guidelines and regulations, and were approved in Ethics Committee for Epidemiological and General Research at the Faculty of Life Sciences, Kumamoto University.
(In general: Tetrazolium assays rely on reduction of a dye to a coloured formazan, in cell work by metabolically active cells.)

Data set [3] deals with HIV-1LAI. Put plainly: microbe, parasite or virus in culture. Summed up: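 MTT read-out after 7 d at 37 °C for MT-2 (10^4/ml) challenged with 100 TCID50 virus ± compound. p24 by chemiluminescent EIA on day 7 for PHA-PBMC (10^6/ml, 50 TCID50) and MT-4 (10^5/ml, 100 TCID50).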
The test system of data set [4] is HIV-1ATV ^R 5μM. Put plainly: p24 production inhibition in MT-4 cells. On the procedure:
as §1

Data set [5] relates to HIV-1_9510 ^R 36P. Put plainly: p24 production inhibition in MT-4 cells. On the procedure: as §1
The subject of data set [6] is HIV-1APV ^R 5μM. Put plainly: p24 production inhibition in MT-4 cells. On the procedure: as §1
In data set [7] the test system is HIV-1NL4-3. In words: p24 production inhibition in MT-4 cells. The following applies: Human immunodeficiency virus 1, MT4, MT-4 cells. On the procedure: as §1
Data set [8] concerns HIV-1LPV ^R 5μM. In words: p24 production inhibition in MT-4 cells. On the procedure: as §1
The mark [9] stands for this setting: number in parentheses, compared to HIV-1NL4-3.

Usually EC50 stands for the midpoint of the concentration-response curve. A word on the CC50: it is the concentration giving 50% cytotoxicity. A low value points to harm at low concentration. As for `COc1ccc(S(=O)(=O)N(CC(C)C)CC(O)C(Cc2ccccc2)NC(=O)OC2C3COC4OCC2C4C3)cc1` (stereo not shown) [GRL-09510], the EC50 in data set [1] is 1.4 to 2.8 nM; in data set [3] (Human immunodeficiency virus 1, MT2, MT-2 cells, 100 TCID50, MTT assay, read-out: EC50 Against HIV-1LAI) it was 1.4 ± 0.9 nM; in data set [4] (read-out: EC50 HIV-1ATV ^R 5μM, MT-4 cells, p24 Gag production), 3.7 ± 0.9 nM; in data set [5] (Human immunodeficiency virus 1, MT4, MT-4 cells, p24 assay, read-out: EC50 HIV-1_9510 ^R 36P) it was 24 ± 2 nM; in data set [6] (read-out: EC50 HIV-1APV ^R 5μM, MT-4 cells, p24 Gag production) it was 4.8 ± 0.1 nM; in data set [7] (p24 Gag production, Table 3), 2.8 ± 0.7 nM. Further, the half-maximal effective concentration (EC50) in data set [7] (p24 assay, Table 4, four to six independent experiments) stood at 2.2 ± 0.9 nM; in data set [8] (read-out: EC50 HIV-1LPV ^R 5μM, MT-4 cells, p24 Gag production) it was 3.9 ± 0.5 nM. This compound also gave a CC50 in data set [2] of 39 ± 0.7 µM. Besides, the “Selectivity Index (CC50/EC50) MT2/HIV-1LAI” value in data set [3] (ratio of CC50 to EC50 against HIV-1LAI) is 27,857. The “fold change of EC50 HIV-1ATV ^R 5μM” value in data set [4] (setting [9]) was 1. The “fold change of EC50 HIV-19510RP36” value in data set [5] (compared to EC50 for HIV-1NL4-3, Supplemental Table 3) was 11. The “fold change of EC50 HIV-1_9510 ^R 36P” value in data set [5] (compared to the value against HIV-1NL4-3) is on record as 11. Besides, the “fold change in EC50 HIV-1APVR5M” value in data set [6] (compared to HIV-1NL4-3, Supplemental Table 4) was 2. For the same compound, the “fold change of EC50 HIV-1APV ^R 5μM” value in data set [6] (setting [9]) is 2. Moreover, in data set [8] (setting [9]), the “fold change of EC50 HIV-1LPV ^R 5μM” value came out at 1.
